From publication PMC7178819, “6,7-Dimethoxy-2-phenethyl-1,2,3,4-tetrahydroisoquinoline amides and corresponding ester isosteres as multidrug resistance reversers” (Journal of Enzyme Inhibition and Medicinal Chemistry, 2020)

What was measured:
[1] = Apparent permeability (Papp) determination (BA/AB) in Caco-2 cell monolayer; format: in vitro ADME; settings: human, Caco-2 monolayer
Summary of the method: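 Caco-2 monolayers cultured 21 days (TEER monitored, >1000 Ω optimal); compounds added at 100 µM in HBSS to the filter well, 120 min at 37 °C, then apical and basolateral sides sampled. Papp ratio BA/AB computed; ratio >2 taken as indicating P-gp substrate.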

P-gp [2] = target: T1, P-gp (Homo sapiens, UniProt P08183); assay: Inhibition of Calcein-AM transport in MDCK-MDR1 cells; format: cell-based; settings: for EC50: Calcein-AM, MDCK-MDR1 cells, mean ± SEM of two experiments; for inhibition at 30 min, 10 µM: human, MDCK-MDR1 cells (overexpressing P-gp), probe Calcein-AM (2.5 µM), at 10 µM, read-out: P-gp maximum inhibition
T1 construct: expressed in transfected cells; host or cells: MDCK-MDR1 (Madin-Darby Canine Kidney cells, gift of Prof. P. Borst, NKI-AVL)
T1 sequence (P08183 whole entry): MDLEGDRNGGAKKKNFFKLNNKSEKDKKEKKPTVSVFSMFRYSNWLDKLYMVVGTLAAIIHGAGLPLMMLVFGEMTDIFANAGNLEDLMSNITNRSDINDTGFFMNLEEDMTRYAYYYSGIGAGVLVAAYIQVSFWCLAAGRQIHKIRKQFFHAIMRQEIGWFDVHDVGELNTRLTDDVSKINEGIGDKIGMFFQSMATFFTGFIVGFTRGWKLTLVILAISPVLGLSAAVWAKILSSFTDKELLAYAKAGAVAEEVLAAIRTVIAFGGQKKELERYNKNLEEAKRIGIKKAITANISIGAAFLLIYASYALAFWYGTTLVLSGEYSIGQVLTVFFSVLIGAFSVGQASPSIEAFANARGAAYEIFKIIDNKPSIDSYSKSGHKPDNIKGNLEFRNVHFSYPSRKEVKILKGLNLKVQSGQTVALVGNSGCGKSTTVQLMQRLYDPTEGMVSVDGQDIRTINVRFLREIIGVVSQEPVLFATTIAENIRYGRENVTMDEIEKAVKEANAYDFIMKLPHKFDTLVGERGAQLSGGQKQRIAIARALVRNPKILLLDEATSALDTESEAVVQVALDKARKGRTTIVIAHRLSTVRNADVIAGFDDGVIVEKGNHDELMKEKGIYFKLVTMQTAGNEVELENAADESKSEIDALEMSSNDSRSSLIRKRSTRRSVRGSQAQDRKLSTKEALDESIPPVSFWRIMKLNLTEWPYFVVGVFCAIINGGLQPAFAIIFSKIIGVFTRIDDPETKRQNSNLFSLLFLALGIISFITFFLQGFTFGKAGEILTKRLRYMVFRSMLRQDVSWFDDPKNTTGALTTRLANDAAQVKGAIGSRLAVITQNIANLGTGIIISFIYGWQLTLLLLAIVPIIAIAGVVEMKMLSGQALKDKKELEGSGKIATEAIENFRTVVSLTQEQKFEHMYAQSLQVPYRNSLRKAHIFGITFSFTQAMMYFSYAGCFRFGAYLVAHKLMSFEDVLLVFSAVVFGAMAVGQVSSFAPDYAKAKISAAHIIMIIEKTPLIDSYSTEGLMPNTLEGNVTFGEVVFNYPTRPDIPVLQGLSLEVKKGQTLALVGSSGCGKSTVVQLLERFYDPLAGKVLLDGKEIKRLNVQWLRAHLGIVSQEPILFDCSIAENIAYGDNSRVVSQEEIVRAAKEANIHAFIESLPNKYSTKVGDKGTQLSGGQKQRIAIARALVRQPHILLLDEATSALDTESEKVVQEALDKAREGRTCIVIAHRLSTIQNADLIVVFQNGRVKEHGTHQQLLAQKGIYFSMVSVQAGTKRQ
Summary of the method: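 Confluent MDCK-MDR1 monolayers preincubated 30 min at 37 °C with compound (1 nM-100 µM), then 2.5 µM Calcein-AM (final) 30 min. After ice-cold PBS washes, fluorescence read (ex 485/em 535 nm); EC50 from % fluorescence increase over untreated basal versus log dose.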

[3] = Stability test in human plasma (LC-MS/MS); format: in vitro ADME; settings: human, human plasma, 1 µM, 37 °C
Summary of the method: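 Analyte at 1 µM in human plasma or PBS; after incubation, internal standard added, centrifuged, supernatant dried and redissolved in formic acid/acetonitrile 80:20. LC-MS/MS in MRM mode; first-order degradation rate k taken as slope of ln concentration versus incubation time.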

P-gp [4] = target: T1, P-gp; assay: ATP cell depletion (ATPlite assay) in MDCK-MDR1 cells; format: cell-based; settings: Yes/No
Summary of the method: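 MDCK-MDR1 cells seeded at 20,000 per well and grown overnight were treated 2 h at 37 °C, 5% CO2 with compounds at 1 to 100 µM. After cell lysis and substrate addition, luminescence was measured following ten minutes of dark adaptation as the readout of cellular ATP.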

| efflux ratio at 120 min, 100 µM [1] | EC50 (P-gp [2]) | half-life at 1 µM [3] | ATP cell depletion (P-gp [4]) | inhibition at 30 min, 10 µM (P-gp [2]) | Structure (SMILES) |
| --- | --- | --- | --- | --- | --- |
| 4.8 | 110 ± 20 nM | ≥ 4 h | No | – | COc1cc2c(cc1OC)CN(CCc1ccc(OC(=O)c3c(OC)ccc4ccccc34)cc1)CC2 [Compound 20, 4–(2-(6,7-Dimethoxy-3,4-dihydroisoquinolin-2(1H)-yl)ethyl)phenyl 2-methoxy-1-naphthoate] |
| 7.4 | 40.5 ± 8 nM | ≥ 4 h | No | 90 to 95% | COc1ccc(C(=O)Nc2ccc(CCN3CCc4cc(OC)c(OC)cc4C3)cc2)c(OC)c1 [Compound 3, N-(4–(2-(6,7-dimethoxy-3,4-dihydroisoquinolin-2(1H)-yl)ethyl)phenyl)-2,4-dimethoxybenzamide] |
| 5.4 | 730 ± 140 nM | 1.05 ± 0.233 h | No | – | COc1cc2c(cc1OC)CN(CCc1ccc(OC(=O)c3ccccc3OC)cc1)CC2 [Compound 15, 4–(2-(6,7-Dimethoxy-3,4-dihydroisoquinolin-2(1H)-yl)ethyl)phenyl 2-methoxybenzoate] |
| 7 | 530 ± 100 nM | ≥ 4 h | No | – | COc1cc2c(cc1OC)CN(CCc1ccc(NC(=O)c3ccc(OC)c(OC)c3OC)cc1)CC2 [Compound 1, N-(4–(2-(6,7-dimethoxy-3,4-dihydroisoquinolin-2(1H)-yl)ethyl)phenyl)-2,3,4-trimethoxybenzamide] |
| 4.1 | 340 ± 70 nM | 0.9 ± 0.15 h | No | – | COc1cc2c(cc1OC)CN(CCc1ccc(OC(=O)c3cccc(OC)c3OC)cc1)CC2 [Compound 18, 4–(2-(6,7-Dimethoxy-3,4-dihydroisoquinolin-2(1H)-yl)ethyl)phenyl 2,3-dimethoxybenzoate] |
| 5 | 260 ± 50 nM | ≥ 4 h | No | – | COc1cc2c(cc1OC)CN(CCc1ccc(NC(=O)c3cccc(OC)c3OC)cc1)CC2 [Compound 5, N-(4–(2-(6,7-dimethoxy-3,4-dihydroisoquinolin-2(1H)-yl)ethyl)phenyl)-2,3-dimethoxybenzamide] |
| 5.5 | 47.8 ± 9.3 nM | ≥ 4 h | No | 90 to 95% | COc1cc2c(cc1OC)CN(CCc1ccc(NC(=O)c3c(OC)c(OC)cc4ccccc34)cc1)CC2 [Compound 8, N-(4–(2-(6,7-dimethoxy-3,4-dihydroisoquinolin-2(1H)-yl)ethyl)phenyl)-2,3-dimethoxy-1-naphthamide] |
| 7.1 | 100 ± 20 nM | 1.47 ± 0.367 h | No | – | COc1ccc(C(=O)Oc2ccc(CCN3CCc4cc(OC)c(OC)cc4C3)cc2)c(OC)c1 [Compound 16, 4–(2-(6,7-Dimethoxy-3,4-dihydroisoquinolin-2(1H)-yl)ethyl)phenyl 2,4-dimethoxybenzoate] |
| 9 | 360 ± 69 nM | ≥ 4 h | No | – | COc1cc2c(cc1OC)CN(CCc1ccc(OC(=O)c3ccc(OC)c(OC)c3OC)cc1)CC2 [Compound 14, 4–(2-(6,7-Dimethoxy-3,4-dihydroisoquinolin-2(1H)-yl)ethyl)phenyl 2,3,4-trimethoxybenzoate] |
| 5.4 | 100 ± 20 nM | ≥ 4 h | No | – | COc1cc2c(cc1OC)CN(CCc1ccc(OC(=O)c3c(OC)c(OC)cc4ccccc34)cc1)CC2 [Compound 21, 4–(2-(6,7-Dimethoxy-3,4-dihydroisoquinolin-2(1H)-yl)ethyl)phenyl 2,3-dimethoxy-1-naphthoate] |
| 5.1 | 840 ± 160 nM | ≥ 4 h | No | – | COc1cc2c(cc1OC)CN(CCc1ccc(OC(=O)c3cccc4ccccc34)cc1)CC2 [Compound 19, 4–(2-(6,7-Dimethoxy-3,4-dihydroisoquinolin-2(1H)-yl)ethyl)phenyl 1-naphthoate] |
